# Assays:
# R6/2 mice [1] = assay: Cage climbing and rearing in R6/2 mice; type: in vivo, mouse; settings: for Cage climbing: 12 weeks
# Excerpt: Cage climbing analysis involves filming a 10cm tall cylindrical cage into which an R6/2 (+/−drug) or WT mouse is placed. The mouse is allowed to move naturally ad libetum for a five minute session within the confines of the cage, while events such as rearing occurrences, climbing time and latency to climb are documented. Cage climbing and rearing data were collected at 12 weeks in this study.
# microglia activation = settings: has been shown; no source given; cited from earlier work
# R6/2 mice [2] = assay: Gait analysis (DigiGait) in R6/2 mice; type: in vivo, mouse
# Excerpt: Gait analysis was also collected at 12 weeks, which is a time when clear differences have previously been described between R6/2 and wild-type. In this analysis, the DigiGait™ Imaging System, which is non-invasive, robust, and quantitative—in that it generates numerous indices of gait dynamics and posture—was used. The system simplifies kinematic observations and analyses by imaging the animals from below a transparent treadmill. Software, including artificial intelligence algorithms, quantifies the characteristics of gait, including step sequence patterns, stride length, cadence, and paw placement. The output also includes swing and stance durations, as well as braking and propulsion durations. Indices computed by DigiGait convey information about sensory and motor inputs modulating gait and gait variability.
# [3] = cited from earlier work
# [4] = tested on: Kainic acid lesion in C57BL/6 mice; assay: Mouse model of acute neurodegeneration: kainic acid lesion volume; type: in vivo; settings: KA 1.0 nmol i.s.; clotrimazole 2 mg/kg i.p. twice daily; vs KA+vehicle; P=0.010 (t test of difference in log[size]); two days after KA
# Description: To test the hypothesis that clotrimazole may be neuroprotective against KA induced excitatory damage in the brain, clotrimazole was compared to benzamide as a positive control in the mouse model. Three study groups (n=8-9) were tested: (1) C57BL/6 treated with KA 1.0 nmol (i.s.) left hemisphere+vehicle (i.p.); (2) KA 1.0 nmol i.s. left hemisphere+clotrimazole (2mg/kg) i.p. twice daily for duration of the study (including a single dose 1 hour before KA); and (3) KA 1.0 nmol i.s. left hemisphere+benzamide (160 mg/kg, i.p. 30 min before injection and 3.5 hrs after). Kainic Acid (K0250), clotrimazole (C6019) and Benzamide (150762) were purchased from Sigma and prepared as followed: Kainic Acid was dissolved in phosphate buffered saline (1×PBS, pH 7.4), pH to 7.4 using NaOH. […]
# Two days after injection of KA the animals were anesthetized and transcardially perfused with ice cold phosphate buffered saline (0.1 M PBS, pH 7.4) containing 10% sucrose and then perfused with ice-cold 4% paraformaldehyde in 0.1M PBS, pH 7.4. […] The area of the lesion, indicated by the lack of staining when compared to the contralateral (intact) striatum/cortex, was measured in each series of sections (n=25-30) blindly by means of an image analysis program and the lesion volume was calculated by a stereological method (Cavalieri's estimator of volume corrected for over projection).
# [5] = 4 and 20 mg/kg dosing, preliminary data
smiles,measurement,setting,value
Clc1ccccc1C(c1ccccc1)(c1ccccc1)n1ccnc1 [clotrimazole],Cage climbing,R6/2 mice [1]; 4 mg/kg (low dose),Statistically significant improvement
same,Cage climbing,R6/2 mice [1]; 20 mg/kg (high dose),Statistically significant improvement
same,Motor performance by cage climbing and rearing,R6/2 mice [1]; [5],significantly improved the motor performance
same,Inhibition of microglia activation,microglia activation,potent inhibitor
same,Motor performance by gait analysis,R6/2 mice [2]; [5],significantly improved the motor performance
same,Swing ratio score,R6/2 mice [2]; gait analysis at 12 weeks,significantly improved
same,Known side effects in humans,[3],"lethargy, apathy, and weakness"
same,Lesion volume,[4],statistically significant improvement

# Source: patent US20070037800A1, “Method of treating neurological disorders using clotrimazole and derivatives thereof” (EnVivo Pharmaceuticals, Inc., priority 2005, published 2007)
